Patent US4421768A, “Fluorinated diamino-heptene and-heptyne derivatives” (Merrell Toraude et Compagnie, priority 1982, dated 1983)
Counter-ions that a name gives are not always drawn. Like-named read-outs stand apart in the source and are kept apart here.

Biological target: T1, Ornithine decarboxylase (ODC) (Rattus norvegicus, UniProt P09057)
T1 construct: prepared from the livers of rats which have been injected with thioacetamide; from tissue; host or cells: liver of thioacetamide-injected rats, purified about ten fold by acid treatment at pH 4.6
T1 sequence (P09057 1-461): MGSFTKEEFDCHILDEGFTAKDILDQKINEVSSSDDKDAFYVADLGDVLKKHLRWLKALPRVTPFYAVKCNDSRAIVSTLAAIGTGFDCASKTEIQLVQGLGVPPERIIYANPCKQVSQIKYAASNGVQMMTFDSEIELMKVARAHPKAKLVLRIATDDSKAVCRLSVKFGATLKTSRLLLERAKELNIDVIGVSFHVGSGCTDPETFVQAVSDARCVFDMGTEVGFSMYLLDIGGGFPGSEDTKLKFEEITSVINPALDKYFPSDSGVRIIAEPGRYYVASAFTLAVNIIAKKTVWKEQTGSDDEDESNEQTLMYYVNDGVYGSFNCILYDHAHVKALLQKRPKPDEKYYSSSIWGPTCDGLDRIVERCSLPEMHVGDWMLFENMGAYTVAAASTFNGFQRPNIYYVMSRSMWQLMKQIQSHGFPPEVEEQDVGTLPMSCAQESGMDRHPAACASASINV
Assay: In vitro inhibition of ornithine decarboxylase (ODC) prepared from livers of thioacetamide-injected rats (time-dependent inactivation, 14CO2 release)
Format: biochemical
Procedure: Ornithine decarboxylase (ODC) is prepared from the livers of rats which have been injected with thioacetamide (150 mg/kg of body weight) 18 hrs before sacrifice, and is purified about ten fold by acid treatment at pH 4.6 as described by Ono et al (Biochem. Biophys. Acta 284, 285 (1972)). The stock solution of ODC is comprised of protein (16 mg/mL), sodium phosphate buffer (30 mM, pH 7.1), dithiothreitol (5 mM) and pyridoxal phosphate (0.1 mM). The specific activity of this stock solution is 0.12 nmol of CO2 /min per mg of protein. For a typical experiment 320 μl of this stock solution are mixed at time 0 with 80 μl of a solution of the inhibitor in water and incubated at 37°. At different times 50 μl aliquots are transferred into a 1-mL assay medium containing sodium phosphate (30 mM, pH 7.1), dithiothreitol (5 mM), pyridoxal phosphate (0.1 mM), L-ornithine (0.081 μmol), and DL-[1-^14 C] ornithine (0.043 μmol, 58 Ci/mol, Amersham) in a closed vessel in which a filter paper moistered with 50 μl hyamine hydroxide (1 M) is fitted. The reaction is allowed to proceed for 60 min at 37° C. and then terminated by addition of 0.5 ml of 40% trichloroacetic acid. After an additional 30 min the CO2 absorbed on the filter paper is counted in a standard scintillation cocktail, KI (apparent dissociation constant) and .tau.50 (half-life, at infinite concentration of inhibitor are calculated according to the method of Kitz and Wilson (J. Biol. Chem., 237, 3245 (1962)).
When tested according to the above-described procedure, the compounds of Examples I and 2 gave the results shown below. Half-life (t1/2) at 10 μM is also set forth below.

SMILES | Ki (rat liver ODC, 37°, pH 7.1, calculated by method of Kitz and Wilson, read-out: KI (apparent dissociation constant)) [µM] | T50 (.tau.50, half-life at infinite concentration of inhibitor) (rat liver ODC, 37°, pH 7.1, infinite concentration of inhibitor, method of Kitz and Wilson) [min] | t1/2 (half-life at 10 μM) (rat liver ODC, 37°, pH 7.1, inhibitor 10 μM) [min] | Ki [µM]
C#CC(N)CCC(N)CF.Cl.Cl (stereo not shown) [Example 1, 1-FLUORO-2,5-DIAMINO-6-HEPTYNE DIHYDROCHLORIDE] | 50 | 3.7 | 22 | 
C#CC(N)CCC(N)C(F)F (stereo not shown) [Example 2, 1,1-DIFLUORO-2,5-DIAMINO-6-HEPTYNE, DIHYDROCHLORIDE] |  |  |  | 1500
